Tests used:
CYP2B11 = target: T1, CYP2B11 (Canis lupus familiaris, UniProt P24460); type: in vitro ADME, canine; conditions: recombinant CYP2B11; (+)-M1 10 μM, (+)-M2 0.5 μM
T1 sequence (P24460 1-494): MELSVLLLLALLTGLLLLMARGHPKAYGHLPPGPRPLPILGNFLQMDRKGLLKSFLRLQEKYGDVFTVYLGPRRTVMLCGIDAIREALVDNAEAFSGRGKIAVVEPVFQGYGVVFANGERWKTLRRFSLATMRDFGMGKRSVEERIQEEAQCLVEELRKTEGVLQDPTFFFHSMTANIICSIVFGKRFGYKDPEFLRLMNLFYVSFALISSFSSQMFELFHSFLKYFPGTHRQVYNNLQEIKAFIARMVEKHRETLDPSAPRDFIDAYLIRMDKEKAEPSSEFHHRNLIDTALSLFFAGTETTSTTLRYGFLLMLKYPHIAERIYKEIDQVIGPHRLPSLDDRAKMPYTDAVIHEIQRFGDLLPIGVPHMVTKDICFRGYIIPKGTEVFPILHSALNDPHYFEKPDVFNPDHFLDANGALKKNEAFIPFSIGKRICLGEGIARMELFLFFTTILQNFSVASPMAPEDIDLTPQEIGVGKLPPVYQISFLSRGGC

cat liver microsomes = type: in vitro ADME; conditions: pooled cat liver microsomes (n = 16); (+)-M1 at 10 μM, (+)-M2 at 0.5 μM
CYP3A12 = CYP3A12 (Canis lupus familiaris, UniProt P24463); type: in vitro ADME, canine; conditions: recombinant CYP3A12; (+)-M1 10 μM, (+)-M2 0.5 μM
CYP2C41 = target: T2, CYP2C41 (Canis lupus familiaris, UniProt O62671); type: in vitro ADME, canine; conditions: recombinant CYP2C41; (+)-M1 10 μM, (+)-M2 0.5 μM
T2 sequence (O62671 1-489): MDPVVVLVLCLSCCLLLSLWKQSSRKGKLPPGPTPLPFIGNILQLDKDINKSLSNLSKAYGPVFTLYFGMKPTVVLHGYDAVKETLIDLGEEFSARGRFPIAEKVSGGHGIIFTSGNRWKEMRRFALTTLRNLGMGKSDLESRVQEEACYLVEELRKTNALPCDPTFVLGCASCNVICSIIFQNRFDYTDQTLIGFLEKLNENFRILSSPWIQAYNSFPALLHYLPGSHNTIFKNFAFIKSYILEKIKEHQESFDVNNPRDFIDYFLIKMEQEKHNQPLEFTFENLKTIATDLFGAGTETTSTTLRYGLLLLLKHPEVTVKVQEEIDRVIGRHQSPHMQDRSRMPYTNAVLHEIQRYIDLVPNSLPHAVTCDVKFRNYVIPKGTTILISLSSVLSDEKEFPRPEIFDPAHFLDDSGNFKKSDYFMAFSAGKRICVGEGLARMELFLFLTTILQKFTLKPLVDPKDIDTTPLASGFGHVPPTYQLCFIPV

CYP3A26 = type: in vitro ADME, canine; conditions: recombinant CYP3A26; (+)-M1 10 μM, (+)-M2 0.5 μM

CYP3A12, sequence (P24463 whole entry): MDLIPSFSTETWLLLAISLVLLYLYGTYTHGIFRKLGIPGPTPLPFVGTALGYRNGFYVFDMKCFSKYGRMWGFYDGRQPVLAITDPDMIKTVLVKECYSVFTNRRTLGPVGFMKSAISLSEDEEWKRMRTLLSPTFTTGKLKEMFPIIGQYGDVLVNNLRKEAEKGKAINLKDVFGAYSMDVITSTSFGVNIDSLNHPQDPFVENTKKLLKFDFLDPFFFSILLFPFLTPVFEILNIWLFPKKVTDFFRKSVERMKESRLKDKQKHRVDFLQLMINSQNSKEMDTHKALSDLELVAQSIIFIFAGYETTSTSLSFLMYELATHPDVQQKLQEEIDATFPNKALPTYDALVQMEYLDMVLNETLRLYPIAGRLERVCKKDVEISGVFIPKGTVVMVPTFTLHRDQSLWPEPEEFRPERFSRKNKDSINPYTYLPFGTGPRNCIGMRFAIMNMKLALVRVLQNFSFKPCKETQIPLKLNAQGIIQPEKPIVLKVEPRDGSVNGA

**Q.** For `CN(C)CC1CCCCC1(O)c1cccc(O)c1.Cl` (single isomer, unassigned; (+)) [(+)-M1, (+)-O-desmethyltramadol hydrochloride], which “formation rate of (+)-M5 (in words)” value (CYP2B11) is on record?
**A.** The value was “somewhat lower activities”.

**Q.** And the “(+)-M5 formation rate (in words)” value (cat liver microsomes)?
**A.** Its value is “low activities”.

**Q.** What about the “formation rate of (+)-M5 (in words)” value (CYP3A12) of the same compound?
**A.** The value was “only very low activities”.

**Q.** And the “formation rate of (+)-M5 (in words)” value (CYP2C41)?
**A.** Its value is “somewhat lower activities”.

**Q.** And the “formation rate of (+)-M5 (in words)” value (CYP3A26)?
**A.** The value was “only very low activities”.

Source: article PMC6214715 (Journal of veterinary pharmacology and therapeutics, 2018)
